According to US20240207267A1, “(R)-Glutarimide CRBN Ligands and Methods of Use” (BeiGene Switzerland GmbH, priority 2021, published 2024):
pIC50: −log10 of the molar value.

Columns and labels:
Format in all cases: cell-based
[1] = target: T1, BTK (TMD-8 cells) (Homo sapiens (Human), UniProt Q06187); test: BTK degradation HTRF assay in TMD-8 cells (Test Example 1); settings: Table 3; for DC50: 6 h treatment, BTK degradation; for Dmax: TMD8, 6 h treatment, maximum percentage of BTK degradation
Procedure: 1c). […] TMD-8 cells are treated with compounds diluted in 0.2% DMSO, dilution is done according to the following protocol: (1) make 500× stock solution in DMSO from 1 mM by 6-fold dilution, total 8 doses were included; (2) make 2× solution in cell culture medium by transferring 0.5 μl 500× stock solution into 125 μl medium; (3) 15 μl of 2× solution is added to cells and incubate for 6 h.
(§1) After 6 h treatment, add 10 μl 4xlysis buffer to each well; seal the plate and incubate 30 min at room temperature on a plate shaker; Once the cells are lysed, 16 μL of cell lysate are transferred to a PE 384-well HTRF detection plate; 4 μL of pre-mixed HTRF antibodies are added to each well; Cover the plate with a plate sealer, spin 1000 rpm for 1 min, Incubate overnight at room temperature; Read on BMG PheraStar with HTRF protocol (337 nm-665 nm-620 nm).
(§2) The IC50 (DC50) value of a compound can be obtained by fitting the following equation
(§3) Y=Bottom+(TOP−Bottom)/(1+((IC50/X)^hillslope))
(§4) Wherein, X and Y are known values, and IC50, Hillslope, Top and Bottom are the parameters obtained by fitting with software. Y is the inhibition percentage (calculated from the equation), X is the concentration of the compound; IC50 is the concentration of the compound when the 50% inhibition is reached. The smaller the IC50 value is, the stronger the inhibitory ability of the compound is. Vice versa, the higher the IC50 value is, the weaker the ability the inhibitory ability of the compound is; Hillslope represents the slope of the fitted curve, generally around 1*; Bottom represents the minimum value of the curve obtained by data fitting, which is generally 0%±20%; Top represents the maximum value of the curve obtained by data fitting, which is generally 100%±20%. The experimental data were fitted by calculating and analyzing with Dotmatics data analysis software.

[2] = target: T1, BTK (TMD-8 cells); test: BTK degradation HTRF assay in TMD-8 cells (Test Example 3); settings: 6 h treatment, Table 5
Procedure: TMD-8 cells were treated with compounds diluted in 0.2% DMSO, dilution was done according to the following protocol: (1) making 500× stock solution in DMSO from 1 mM by 6-fold dilution, total 8 doses were included; (2) making 2× solution in cell culture medium by transferring 0.5 μl 500× stock solution into […]; (3) adding 15 μl of 2× solution to cells for incubation of 6 h.
After 6 h treatment, 10 μl 4xlysis buffer was added to each well; the plate was sealed and incubated for 30 min at room temperature on a plate shaker; Once the cells was lysed, 16 μL of cell lysate were transferred to a PE 384-well HTRF detection plate; 4 μL of pre-mixed HTRF antibodies were added to each well; the plate was covered with a plate sealer, and then spinned at 1000 rpm for 1 min, then incubated overnight at room temperature; the results were read on BMG PheraStar with HTRF protocol (337 nm-665 nm-620 nm).
as §2, §3
as §4, with “wherein,” for “Wherein,”

[3] = tested on: HEK-293 cells; test: HEK-293 cytotoxicity detection (CellTiter-Glo); settings: Homo sapiens, HEK293, 72 h incubation
Procedure: HEK-293 cells were treated with compounds diluted in 0.2% DMSO, dilution was done according to the following protocol: (1) making 500× stock solution in DMSO from 5 mM by 4-fold dilution, total 8 doses were included; (2) making 2× solution in cell culture medium by transferring 0.5ul 500× stock solution into 125ul medium; (3) adding 50ul of 2× solution to cells for incubation of 72 h.
25 μl of the CellTiter-Glo®Reagent [(Promega) - Cat No. G7572] was added to each well in the 96-well plate. The contents were mixed for 2 minutes on an orbital shaker to induce cell lysis. The plate was then allowed to incubate at room temperature for 10 minutes to stabilize luminescent signal. Luminescence was recorded on BMG PheraStar with luminescence protocol.
The IC50 value of a compound can be obtained by fitting the following equation
as §3, §4

[4] = target: IRAKM (THP-1 cells) (Homo sapiens (Human), UniProt Q9Y616); test: IRAKM degradation HTRF assay in THP-1 cells; settings: 6 h treatment
IRAKM (THP-1 cells), sequence (Q9Y616 whole entry): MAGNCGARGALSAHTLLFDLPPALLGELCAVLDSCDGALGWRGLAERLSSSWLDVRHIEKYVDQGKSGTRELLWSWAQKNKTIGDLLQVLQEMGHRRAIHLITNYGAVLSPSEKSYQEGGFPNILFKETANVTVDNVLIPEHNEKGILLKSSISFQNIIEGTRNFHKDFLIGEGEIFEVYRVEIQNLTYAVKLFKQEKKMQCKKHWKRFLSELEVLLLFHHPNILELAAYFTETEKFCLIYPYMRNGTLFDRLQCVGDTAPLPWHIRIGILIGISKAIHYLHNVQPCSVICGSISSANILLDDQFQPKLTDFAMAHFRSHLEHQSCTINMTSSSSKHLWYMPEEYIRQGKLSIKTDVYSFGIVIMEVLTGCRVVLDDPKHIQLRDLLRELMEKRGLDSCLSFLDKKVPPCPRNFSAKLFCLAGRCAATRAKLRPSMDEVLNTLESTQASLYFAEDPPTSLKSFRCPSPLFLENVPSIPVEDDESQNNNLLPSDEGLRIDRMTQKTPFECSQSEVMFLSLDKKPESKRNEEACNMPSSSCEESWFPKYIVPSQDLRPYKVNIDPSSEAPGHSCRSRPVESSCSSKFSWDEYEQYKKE
Procedure: THP-1 cells are treated with compounds diluted in 0.2% DMSO, dilution is done according to the following protocol: (1) make 500× stock solution in DMSO from 5 mM by 5-fold dilution, total 8 doses were included; (2) make 2× solution in cell culture medium by transferring 0.5 μl 500× stock solution into 125 μl medium; (3) 15 μl of 2× solution is added to cells and incubate for 6 h.
as §1, with “1 hour” for “30 min”, “plate(for triple mutant cells, the lysate were diluted by the qual volume 1xlysis buffer before transfer);” for “plate;”
as §2, §3
Wherein, X and Y are known values, and IC50, Hillslope, Top and Bottom are the parameters obtained by fitting with software. Y is the inhibition percentage (calculated from the equation), X is the concentration of the compound; IC50 is the concentration of the compound when the 50% inhibition is reached. […]

T1 sequence (Q06187 whole entry): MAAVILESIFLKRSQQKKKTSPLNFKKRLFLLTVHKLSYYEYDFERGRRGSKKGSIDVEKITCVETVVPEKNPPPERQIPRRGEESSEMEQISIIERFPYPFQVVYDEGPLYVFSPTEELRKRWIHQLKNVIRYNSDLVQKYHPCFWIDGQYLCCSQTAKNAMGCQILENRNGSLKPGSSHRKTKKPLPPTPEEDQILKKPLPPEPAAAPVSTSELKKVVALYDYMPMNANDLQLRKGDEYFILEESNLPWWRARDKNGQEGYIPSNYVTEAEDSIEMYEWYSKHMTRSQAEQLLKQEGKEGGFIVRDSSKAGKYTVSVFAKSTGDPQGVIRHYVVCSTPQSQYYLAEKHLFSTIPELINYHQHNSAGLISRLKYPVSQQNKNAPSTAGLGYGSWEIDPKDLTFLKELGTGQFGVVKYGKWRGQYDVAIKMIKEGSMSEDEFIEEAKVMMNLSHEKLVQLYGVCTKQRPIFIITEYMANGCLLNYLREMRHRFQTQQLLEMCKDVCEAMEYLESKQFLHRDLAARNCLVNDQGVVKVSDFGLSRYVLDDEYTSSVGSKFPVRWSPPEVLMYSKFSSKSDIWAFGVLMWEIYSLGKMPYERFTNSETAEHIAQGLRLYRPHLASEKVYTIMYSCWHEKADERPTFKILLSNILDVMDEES

| DC50 [1] [nM] | Dmax [1] [%] | DC50 [2] [nM] | DC50 [4] [nM] | Compound | pIC50 [3] |
| --- | --- | --- | --- | --- | --- |
| – | – | 242 | – | Cc1cc(-c2cc(Nc3cccc(N4CCN(CC5CCN(c6ccc(N7CCC(=O)NC7=O)cc6)CC5)CC4)c3)ncn2)c(F)cc1[C@@H](C)NC(=O)c1nc(C(C)(C)C)no1 [Example C39, (R)-3-(tert-butyl)-N-(1-(4-(6-((3-(4-((1-(4-(2,4-dioxotetrahydropyrimidin-1(21)-yl)phenyl)piperidin-4-yl)methyl)piperazin-1-yl)phenyl)amino)pyrimidin-4-yl)-5-fluoro-2-methylphenyl)ethyl)-1,2,4-oxadiazole-5-carboxamide] | < 5.00 |
| – | – | 2.73 | – | Cc1cc(-c2cc(Nc3ccc(N4CCN(CCc5cc(F)c([C@H]6CCC(=O)NC6=O)c(F)c5)CC4)cn3)ncn2)ccc1[C@@H](C)NC(=O)c1nc(C(C)(C)C)no1 [Example C41, 3-(tert-butyl)-N—((R)-1-(4-(6-((5-(4-(4-((R)-2,6-dioxopiperidin-3-yl)-3,5-difluorophenethyl)piperazin-1-yl)pyridin-2-yl)amino)pyrimidin-4-yl)-2-methylphenyl)ethyl)-1,2,4-oxadiazole-5-carboxamide] | < 5.00 |
| – | – | – | 2.8 | CCc1nc(C(N)=O)c(Nc2ccc(N3CCC(N4CCN(CCc5cc(F)c(C6CCC(=O)NC6=O)c(F)c5)CC4)CC3)c(OC)c2)nc1NC1CCOCC1 (stereo not drawn) [Example D42, 3-((4-(4-(4-(4-(2,6-dioxopiperidin-3-yl)-3,5-difluorophenethyl)piperazin-1-yl)piperidin-1-yl)-3-methoxyphenyl)amino)-6-ethyl-5-((tetrahydro-2H-pyran-4-yl)amino)pyrazine-2-carboxamide] | – |

Continued, compound first:

| Compound | DC50 [1] [nM] | Dmax [1] [%] | DC50 [2] [nM] | DC50 [4] [nM] | pIC50 [3] |
| --- | --- | --- | --- | --- | --- |
| Cc1cc(-c2n[nH]c3ncc(-c4ccc(C5CCN(CCc6ccc(C7CCC(=O)NC7=O)cc6)CC5)cc4)cc23)ccc1CNC(=O)c1nc(C(C)(C)C)no1 (stereo not drawn) [Example 31, 3-(tert-butyl)-N-(4-(5-(4-(1-(4-(2,6-dioxopiperidin-3-yl)phenethyl)piperidin-4-yl)phenyl)-1H-pyrazolo[3,4-b]pyridin-3-yl)-2-methylbenzyl)-1,2,4-oxadiazole-5-carboxamide] | > 2000 | 12 | – | – | – |
| Cc1cc(-c2n[nH]c3ncc(-c4ccc(C5CCN(CCc6cc(F)c([C@H]7CCC(=O)NC7=O)c(F)c6)CC5)cc4)cc23)ccc1CNC(=O)c1nc(C(C)(C)C)no1 [Example 32, (R)-3-(tert-butyl)-N-(4-(5-(4-(1-(4-(2,6-dioxopiperidin-3-yl)-3,5-difluorophenethyl)piperidin-4-yl)phenyl)-1H-pyrazolo[3,4-b]pyridin-3-yl)-2-methylbenzyl)-1,2,4-oxadiazole-5-carboxamide] | 5.33 | 97.4 | – | – | – |
| Cc1cccc(NC(=O)c2ccc(-c3nn4c(c3C(N)=O)Nc3ccc(N5CCN(CCc6cc(F)c([C@H]7CCC(=O)NC7=O)c(F)c6)CC5)cc3CC4)c(F)c2C)n1 [Example B35, (R)-7-(4-(4-(2,6-dioxopiperidin-3-yl)-3,5-difluorophenethyl)piperazin-1-yl)-2-(2-fluoro-3-methyl-4-((6-methylpyridin-2-yl)carbamoyl)phenyl)-9,10-dihydro-4H-benzo[d]pyrazolo[1,5-a][1,3]diazepine-3-carboxamide] | – | – | 2.32 | – | < 5.00 |
| Cc1c(C(=O)Nc2cn(C)cn2)ccc(-c2nn3c(c2C(N)=O)Nc2ccc(N4CCN(CCc5cc(F)c([C@H]6CCC(=O)NC6=O)c(F)c5)CC4)cc2CC3)c1F [Example B37, (R)-7-(4-(4-(2,6-dioxopiperidin-3-yl)-3,5-difluorophenethyl)piperazin-1-yl)-2-(2-fluoro-3-methyl-4-((1-methyl-1H-imidazol-4-yl)carbamoyl)phenyl)-9,10-dihydro-4H-benzo[d]pyrazolo[1,5-a][1,3]diazepine-3-carboxamide] | – | – | 0.414 | – | < 5.00 |
| Cc1c(C(=O)Nc2cscn2)ccc(-c2nn3c(c2C(N)=O)Nc2ccc(N4CCN(CCc5cc(F)c([C@H]6CCC(=O)NC6=O)c(F)c5)CC4)cc2CC3)c1F [Example B38, (R)-7-(4-(4-(2,6-dioxopiperidin-3-yl)-3,5-difluorophenethyl)piperazin-1-yl)-2-(2-fluoro-3-methyl-4-(thiazol-4-ylcarbamoyl)phenyl)-9,10-dihydro-4H-benzo[d]pyrazolo[1,5-a][1,3]diazepine-3-carboxamide] | – | – | 1.7 | – | 7.57 |
